Experimental data reported in patent US5466671A, “Apidaecin-type peptide antibiotics with improved activities and/or different antibacterial spectrum” (priority 1994, dated 1995).
Residues, ends and D or L forms follow the SMILES beside them.

Experiments:
[1] = test system: Y. enterocolitica; assay: Minimal inhibitory concentration (liquid culture); settings: inoculum 5000 CFU/ml; a-b = highest concentration with growth - lowest without growth
[2] = test system: Acinetobacter calcoaceticus; assay: Inhibition zone assay (agar plate); assay type: cell-based; settings: for inhibition zone diameter (number of plus signs): agar plate, 50 nanomoles/well, 3 mm wells
[3] = test system: E. coli Apid^R; assay: Minimal inhibitory concentration (liquid culture); assay type: cell-based; settings: a-b = highest concentration with growth - lowest without growth
Excerpt: For details see `Experimental Procedures`.

[4] = test system: Agrobacterium tumefaciens; assay: Inhibition zone assay (agar plate); assay type: cell-based; settings: for inhibition zone diameter (number of plus signs): agar plate, 50 nanomoles/well, 3 mm wells
[5] = test system: Legionella pneumophila; assay type: cell-based; settings: agar plate, 50 nanomoles/well, 3 mm wells
[6] = test system: Enterobacter cloacae; assay: Inhibition zone assay (agar plate); assay type: cell-based; settings: for inhibition zone diameter (number of plus signs): agar plate, 50 nanomoles/well, 3 mm wells
[7] = test system: E. coli 11775; assay: Minimal inhibitory concentration (liquid culture); settings: for minimal inhibitory concentration (MIC): a-b = highest concentration with growth - lowest without growth
[8] = test system: M. morganii; assay: Minimal inhibitory concentration (liquid culture); settings: inoculum 400 CFU/ml; a-b = highest concentration with growth - lowest without growth
[9] = test system: E. coli 25922; assay: Minimal inhibitory concentration (liquid culture); settings: inoculum 1100 CFU/ml; a-b = highest concentration with growth - lowest without growth
[10] = test system: A. calcoaceticus; assay: Minimal inhibitory concentration (liquid culture); settings: inoculum 16 × 10^6 CFU/ml; a-b = highest concentration with growth - lowest without growth
[11] = test system: Pseudomonas syringae; assay: Inhibition zone assay (agar plate); assay type: cell-based; settings: for inhibition zone diameter (number of plus signs): agar plate, 50 nanomoles/well, 3 mm wells
[12] = test system: Klebsiella pneumoniae; assay: Inhibition zone assay (agar plate); assay type: cell-based; settings: for inhibition zone diameter (number of plus signs): agar plate, 50 nanomoles/well, 3 mm wells
[13] = test system: Yersinia enterocolitica; assay: Inhibition zone assay (agar plate); assay type: cell-based; settings: 50 nanomoles/well, 3 mm wells
[14] = test system: Rhizobium meliloti; assay: Inhibition zone assay (agar plate); assay type: cell-based; settings: 50 nanomoles/well, 3 mm wells
[15] = test system: Erwinia amylovora; assay: Inhibition zone assay (agar plate); assay type: cell-based; settings: for inhibition zone diameter (number of plus signs): agar plate, 50 nanomoles/well, 3 mm wells
[16] = test system: Haemophilus influenzae; assay: Inhibition zone assay (agar plate); assay type: cell-based; settings: 50 nanomoles/well, 3 mm wells
[17] = test system: Shigella dysenteriae; assay type: cell-based
[18] = test system: Escherichia coli (ATCC11775); assay: Inhibition zone assay (agar plate); assay type: cell-based; settings: for inhibition zone diameter (number of plus signs): agar plate, 50 nanomoles/well, 3 mm wells
[19] = test system: E. coli 23802; assay: Minimal inhibitory concentration (liquid culture); settings: inoculum 5000 CFU/ml; a-b = highest concentration with growth - lowest without growth
[20] = test system: Salmonella typhimurium; assay: Inhibition zone assay (agar plate); assay type: cell-based; settings: for inhibition zone diameter (number of plus signs): agar plate, 50 nanomoles/well, 3 mm wells
[21] = test system: S. typhimurium; assay: Minimal inhibitory concentration (liquid culture); settings: inoculum 8 × 10^6 CFU/ml; a-b = highest concentration with growth - lowest without growth
[22] = test system: Escherichia coli (K514); assay type: cell-based; settings: agar plate, 50 nanomoles/well, 3 mm wells
[23] = test system: Morganella morganii; assay: Inhibition zone assay (agar plate); assay type: cell-based; settings: 50 nanomoles/well, 3 mm wells
[24] = test system: Campylobacter jejuni; assay: Inhibition zone assay (agar plate); assay type: cell-based; settings: 50 nanomoles/well, 3 mm wells
[25] = test system: E. coli D22; assay type: cell-based; settings: 50 nanomoles per well (3 mm diameter)
[26] = test system: Salmonella typhi; assay type: cell-based; settings: 50 nanomoles per well (3 mm diameter)
[27] = 50 nanomoles per well (3 mm diameter)

Compound | minimal inhibitory concentration (MIC) [1] [µg/mL] | inhibition zone diameter (number of plus signs) [2] | minimal inhibitory concentration (MIC) ([3]; inoculum 12 × 10^6 CFU/ml) [µg/mL] | minimal inhibitory concentration (MIC) ([3]; inoculum 1000 CFU/ml) [µg/mL] | inhibition zone diameter (number of plus signs) [4] | inhibition zone diameter (number of plus signs) [6] | minimal inhibitory concentration (MIC) ([7]; inoculum 16 × 10^6 CFU/ml) [µg/mL] | minimal inhibitory concentration (MIC) ([7]; inoculum 1200 CFU/ml) [µg/mL] | minimal inhibitory concentration (MIC) [8] [µg/mL] | minimal inhibitory concentration (MIC) [9] [µg/mL] | minimal inhibitory concentration (MIC) [10] [µg/mL] | inhibition zone diameter (number of plus signs) [11] | inhibition zone diameter (number of plus signs) [12] | inhibition zone diameter (number of plus signs) [14] | inhibition zone diameter (number of plus signs) [15] | inhibition zone diameter (number of plus signs) [16] | inhibition zone diameter (number of plus signs) [18] | minimal inhibitory concentration (MIC) [19] [µg/mL] | inhibition zone diameter (number of plus signs) [20] | minimal inhibitory concentration (MIC) [21] [µg/mL] | further results
CC[C@H](C)[C@H](NC(=O)[C@H](Cc1ccc(O)cc1)NC(=O)[C@@H](NC(=O)[C@@H]1CCCN1C(=O)[C@H](CCCNC(=N)N)NC(=O)[C@H](CC(N)=O)NC(=O)[C@H](C)N)C(C)C)C(=O)N1CCC[C@H]1C(=O)N1CCC[C@H]1C(=O)N1CCC[C@H]1C(=O)N[C@@H](CCCNC(=N)N)C(=O)N1CCC[C@H]1C(=O)N1CCC[C@H]1C(=O)N[C@@H](Cc1c[nH]cn1)C(=O)N1CCC[C@H]1C(=O)N[C@@H](CCCNC(=N)N)C(=O)N[C@@H](CC(C)C)C(=O)O [Bb+A] (H-ANRPVYIPPPRPPHPRL-OH) | 5 to 10 | ++ ((++) 7-9 mm) | > 40 | > 40 | ++++ ((++++) 15-19 mm) | +++ ((+++) 10-14 mm) | 0.5 to 1 | 0.05 to 0.1 | 20 to 40 | 0.5 to 1 | 2 to 10 | +++++ ((+++++) 20 or more min) | ++ ((++) 7-9 mm) | ++++ ((++++) 15-19 mm) | ++++ ((++++) 15-19 mm) | +++ ((+++) 10-14 mm) | ++++ ((++++) 15-19 mm) | 10 to 20 | +++ ((+++) 10-14 mm) | 0.5 to 1 | inhibition zone diameter (number of plus signs) [5]: ++ ((++) 7-9 mm); inhibition zone diameter (number of plus signs) [13]: +++ ((+++) 10-14 mm); inhibition zone diameter (number of plus signs) ([17]; agar plate, 50 nanomoles/well, 3 mm wells): + +++
CC[C@H](C)[C@H](NC(=O)[C@H](Cc1ccc(O)cc1)NC(=O)[C@@H](NC(=O)[C@@H]1CCCN1C(=O)[C@H](CCCNC(=N)N)NC(=O)[C@@H](N)CC(N)=O)C(C)C)C(=O)N1CCC[C@H]1C(=O)N1CCC[C@H]1C(=O)N1CCC[C@H]1C(=O)N[C@@H](CCCNC(=N)N)C(=O)N1CCC[C@H]1C(=O)N1CCC[C@H]1C(=O)N[C@@H](Cc1c[nH]cn1)C(=O)N1CCC[C@H]1C(=O)N[C@@H](CCCNC(=N)N)C(=O)N[C@@H](CC(C)C)C(=O)O [Bb-A] (H-NRPVYIPPPRPPHPRL-OH) | 1 to 5 | ++ ((++) 7-9 mm) | > 40 | > 40 | ++++ ((++++) 15-19 mm) | +++ ((+++) 10-14 mm) | 1 to 5 | 0.1 to 0.5 | > 40 | 1 to 5 | > 20 | ++++ ((++++) 15-19 mm) | ++ ((++) 7-9 mm) | +++++ ((+++++) 20 or more min) | ++++ ((++++) 15-19 mm) | ++ ((++) 7-9 mm) | ++++ ((++++) 15-19 mm) | 10 to 20 | +++ ((+++) 10-14 mm) | 0.5 to 1 | inhibition zone diameter (number of plus signs) [5]: + ((+) 5-6 mm); inhibition zone diameter (number of plus signs) [13]: +++ ((+++) 10-14 mm)
CC[C@H](C)[C@H](NC(=O)[C@@H]1CCCN1C(=O)[C@H](C)NC(=O)[C@@H]1CCCN1C(=O)[C@H](CCCNC(=N)N)NC(=O)[C@@H]1CCCN1C(=O)[C@H](CCCCN)NC(=O)[C@H](CC(N)=O)NC(=O)[C@@H]1CCCN1C(=O)[C@H](CCCCN)NC(=O)CN)C(=O)N[C@@H](CCCCN)C(=O)N1CCC[C@H]1C(=O)N[C@@H](CCCNC(=N)N)C(=O)N1CCC[C@H]1C(=O)N1CCC[C@H]1C(=O)N[C@@H](Cc1c[nH]cn1)C(=O)N1CCC[C@H]1C(=O)N[C@@H](CCCNC(=N)N)C(=O)N[C@@H](CC(C)C)C(=O)O [Cd 2+, Gly--Lys--Pro--Asn--Lys--Pro--Arg--Pro--Ala--Pro--Ile--Lys--Pro--Arg--Pro--Pro--His--Pro--Arg--Leu] (H-GKPNKPRPAPIKPRPPHPRL-OH) | 10 to 20 | + ((+) 5-6 mm) | 0.5 to 1.5 | 0.5 to 1 | +++ ((+++) 10-14 mm) | +++ ((+++) 10-14 mm) | 0.1 to 0.5 | 0.1 to 0.5 | 1 to 5 | 0.1 to 0.5 | 10 to 20 | +++ ((+++) 10-14 mm) | ++ ((++) 7-9 mm) | ++++ ((++++) 15-19 mm) | ++ ((++) 7-9 mm) | ++++ ((++++) 15-19 mm) | +++ ((+++) 10-14 mm) | 0.1 to 0.5 | +++ ((+++) 10-14 mm) | 0.1 to 0.5 | inhibition zone diameter (number of plus signs) [22]: ++ ((++) 7-9 mm); inhibition zone diameter (number of plus signs) [23]: ++ ((++) 7-9 mm); minimal inhibitory concentration (MIC) ([3]; inoculum 12 × 10^6 CFU/ml, listed as Cd2+): measurable activities; inhibition zone diameter (number of plus signs) [24]: +++++ ((+++++) 20 or more min)
CC(C)C[C@H](NC(=O)[C@H](CCCNC(=N)N)NC(=O)[C@@H]1CCCN1C(=O)[C@H](Cc1c[nH]cn1)NC(=O)[C@@H]1CCCN1C(=O)[C@@H]1CCCN1C(=O)[C@H](CCCNC(=N)N)NC(=O)[C@@H]1CCCN1C(=O)[C@@H]1CCCN1C(=O)[C@@H](NC(=O)[C@H](CCC(N)=O)NC(=O)[C@H](CCC(N)=O)NC(=O)[C@@H]1CCCN1C(=O)[C@H](CCCNC(=N)N)NC(=O)[C@@H]1CCCN1C(=O)[C@H](CCCCN)NC(=O)CN)C(C)C)C(=O)O [Ho +, G K P R P Q Q V P P R P P H P R L] (H-GKPRPQQVPPRPPHPRL-OH) | 1 to 5 | + ((+) 5-6 mm) |  | 1 to 5 | ++ ((++) 7-9 mm) | +++ ((+++) 10-14 mm) | 0.1 to 0.5 | 0.1 to 0.5 | 1 to 5 | 0.1 to 0.5 | 2 to 10 | +++ ((+++) 10-14 mm) | +++ ((+++) 10-14 mm) | ++++ ((++++) 15-19 mm) | +++ ((+++) 10-14 mm) | +++ ((+++) 10-14 mm) | +++ ((+++) 10-14 mm) | 0.5 to 1 | +++ ((+++) 10-14 mm) | 0.5 to 1 | Inhibition zones: in mm diameter [25]: 14 mm; Inhibition zones: in mm diameter [2, 27]: 5 mm; inhibition zone diameter (number of plus signs) [23]: ++ ((++) 7-9 mm); Inhibition zones: in mm diameter [4, 27]: 12 mm; Inhibition zones: in mm diameter [6, 27]: 15 mm; inoculum effect on inhibition of viability ([7]; inoculum sizes differing by four orders of magnitude): equally well; Inhibition zones: in mm diameter [26]: 20 mm; Inhibition zones: in mm diameter [11, 27]: 13 mm; Inhibition zones: in mm diameter [12, 27]: 15 mm; inhibition zone diameter (number of plus signs) [13]: ++++ ((++++) 15-19 mm); Inhibition zones: in mm diameter [15, 27]: 12 mm; Inhibition zones: in mm diameter [17, 27]: 18 mm; Inhibition zones: in mm diameter [18, 27]: 15 mm; Inhibition zones: in mm diameter [20, 27]: 14 mm
